Where two headings read alike, the source gives them in different places.
Experiments:
Assay type in all cases: cell-based
168 GPCRs [1] = target: T1, 168 GPCRs (Homo sapiens, UniProt P46092)
T1 construct: host or cells: PathHunter cell lines
T1 sequence (P46092 1-362): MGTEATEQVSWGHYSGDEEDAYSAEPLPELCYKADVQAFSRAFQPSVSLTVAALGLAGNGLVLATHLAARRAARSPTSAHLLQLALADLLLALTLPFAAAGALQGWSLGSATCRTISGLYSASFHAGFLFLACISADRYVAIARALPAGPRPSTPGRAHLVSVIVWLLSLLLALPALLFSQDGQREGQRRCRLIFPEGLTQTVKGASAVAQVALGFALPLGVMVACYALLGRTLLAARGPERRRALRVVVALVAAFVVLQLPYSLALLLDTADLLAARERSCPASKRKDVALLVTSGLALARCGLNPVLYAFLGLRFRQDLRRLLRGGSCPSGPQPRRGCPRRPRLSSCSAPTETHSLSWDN

168 GPCRs [2] = target: T2, 168 GPCRs (Homo sapiens, UniProt P14416); settings: DRD2L
T2 construct: host or cells: PathHunter cell lines

168 GPCRs [3] = target: T3, 168 GPCRs (Homo sapiens, UniProt P20309)
T3 construct: host or cells: PathHunter cell lines

168 GPCRs [4] = target: T4, 168 GPCRs (Homo sapiens, UniProt P32239); settings: CCKBR
T4 construct: host or cells: PathHunter cell lines
T4 sequence (P32239 1-447): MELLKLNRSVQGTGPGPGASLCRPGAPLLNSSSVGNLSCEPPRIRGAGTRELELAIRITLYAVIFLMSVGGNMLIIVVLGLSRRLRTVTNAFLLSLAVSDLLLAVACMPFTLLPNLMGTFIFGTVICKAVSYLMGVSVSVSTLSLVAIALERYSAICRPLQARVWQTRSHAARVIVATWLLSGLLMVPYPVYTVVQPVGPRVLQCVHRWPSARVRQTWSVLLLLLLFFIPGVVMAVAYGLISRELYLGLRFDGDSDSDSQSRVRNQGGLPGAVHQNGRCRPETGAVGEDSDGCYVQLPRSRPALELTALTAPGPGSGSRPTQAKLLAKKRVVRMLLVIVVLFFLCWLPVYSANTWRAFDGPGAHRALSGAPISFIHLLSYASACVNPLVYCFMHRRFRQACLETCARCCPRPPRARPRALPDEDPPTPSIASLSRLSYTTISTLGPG

168 GPCRs [5] = target: T5, 168 GPCRs (Homo sapiens, UniProt P34972)
T5 construct: host or cells: PathHunter cell lines

168 GPCRs [6] = target: T6, 168 GPCRs (Homo sapiens, UniProt P08913); settings: ADRA2A
T6 construct: host or cells: PathHunter cell lines
T6 sequence (P08913 1-465): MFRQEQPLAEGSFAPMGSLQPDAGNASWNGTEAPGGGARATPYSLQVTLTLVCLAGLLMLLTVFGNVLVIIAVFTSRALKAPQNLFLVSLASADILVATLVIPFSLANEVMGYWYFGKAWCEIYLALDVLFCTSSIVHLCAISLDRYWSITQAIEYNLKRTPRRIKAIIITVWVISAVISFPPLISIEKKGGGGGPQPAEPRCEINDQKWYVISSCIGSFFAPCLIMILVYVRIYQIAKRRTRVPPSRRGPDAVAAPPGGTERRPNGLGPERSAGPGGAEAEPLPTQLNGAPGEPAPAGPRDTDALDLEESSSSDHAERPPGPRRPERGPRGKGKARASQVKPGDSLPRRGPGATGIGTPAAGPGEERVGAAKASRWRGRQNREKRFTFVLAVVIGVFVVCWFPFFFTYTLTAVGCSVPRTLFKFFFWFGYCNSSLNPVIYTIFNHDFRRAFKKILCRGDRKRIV

168 GPCRs [7] = target: T7, 168 GPCRs (Homo sapiens, UniProt P25101); settings: EDNRA
T7 construct: host or cells: PathHunter cell lines
T7 sequence (P25101 21-427): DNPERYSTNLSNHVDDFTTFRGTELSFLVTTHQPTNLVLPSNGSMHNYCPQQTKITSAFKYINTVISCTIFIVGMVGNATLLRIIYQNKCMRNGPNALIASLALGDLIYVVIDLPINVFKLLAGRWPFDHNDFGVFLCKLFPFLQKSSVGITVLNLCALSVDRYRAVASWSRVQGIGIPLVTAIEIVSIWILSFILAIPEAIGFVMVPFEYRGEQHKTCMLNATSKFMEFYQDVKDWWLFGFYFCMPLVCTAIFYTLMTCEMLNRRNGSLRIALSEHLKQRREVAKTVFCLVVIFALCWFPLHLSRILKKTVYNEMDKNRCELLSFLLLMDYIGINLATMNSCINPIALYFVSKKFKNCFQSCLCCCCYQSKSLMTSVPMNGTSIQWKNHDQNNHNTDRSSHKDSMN

168 GPCRs [8] = target: T8, 168 GPCRs (Homo sapiens, UniProt Q9HC97)
T8 construct: host or cells: PathHunter cell lines
T8 sequence (Q9HC97 whole entry): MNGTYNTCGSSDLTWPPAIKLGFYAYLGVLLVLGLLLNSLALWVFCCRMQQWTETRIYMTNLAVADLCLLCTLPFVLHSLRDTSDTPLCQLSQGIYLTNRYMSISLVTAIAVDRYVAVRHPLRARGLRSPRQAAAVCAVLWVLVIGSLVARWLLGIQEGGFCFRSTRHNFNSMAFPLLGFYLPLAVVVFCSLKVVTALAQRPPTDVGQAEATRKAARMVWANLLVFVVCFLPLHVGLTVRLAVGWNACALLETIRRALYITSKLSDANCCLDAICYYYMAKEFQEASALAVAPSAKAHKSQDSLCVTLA

T5 sequence (P34972 whole entry): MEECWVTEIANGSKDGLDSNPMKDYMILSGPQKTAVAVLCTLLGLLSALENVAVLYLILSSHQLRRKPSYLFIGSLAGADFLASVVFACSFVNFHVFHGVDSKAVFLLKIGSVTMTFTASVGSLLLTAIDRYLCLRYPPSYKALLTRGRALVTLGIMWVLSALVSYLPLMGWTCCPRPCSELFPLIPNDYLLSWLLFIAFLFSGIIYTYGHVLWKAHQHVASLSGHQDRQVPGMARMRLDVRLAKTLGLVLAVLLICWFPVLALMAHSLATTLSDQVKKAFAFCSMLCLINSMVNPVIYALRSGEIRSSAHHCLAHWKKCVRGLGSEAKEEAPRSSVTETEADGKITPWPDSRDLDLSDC
T2 sequence (P14416 whole entry): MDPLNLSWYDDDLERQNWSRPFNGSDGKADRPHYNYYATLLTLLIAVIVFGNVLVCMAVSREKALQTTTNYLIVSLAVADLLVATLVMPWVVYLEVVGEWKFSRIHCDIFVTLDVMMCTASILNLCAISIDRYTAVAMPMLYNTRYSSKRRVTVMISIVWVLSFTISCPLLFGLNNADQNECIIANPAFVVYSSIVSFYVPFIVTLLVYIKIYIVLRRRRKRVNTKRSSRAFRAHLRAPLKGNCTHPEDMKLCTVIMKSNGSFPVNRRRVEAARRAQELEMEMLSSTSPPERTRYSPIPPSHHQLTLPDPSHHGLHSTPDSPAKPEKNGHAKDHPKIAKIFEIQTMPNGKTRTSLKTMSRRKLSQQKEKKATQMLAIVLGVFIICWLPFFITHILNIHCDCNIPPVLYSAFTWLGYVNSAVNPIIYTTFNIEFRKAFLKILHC
T3 sequence (P20309 whole entry): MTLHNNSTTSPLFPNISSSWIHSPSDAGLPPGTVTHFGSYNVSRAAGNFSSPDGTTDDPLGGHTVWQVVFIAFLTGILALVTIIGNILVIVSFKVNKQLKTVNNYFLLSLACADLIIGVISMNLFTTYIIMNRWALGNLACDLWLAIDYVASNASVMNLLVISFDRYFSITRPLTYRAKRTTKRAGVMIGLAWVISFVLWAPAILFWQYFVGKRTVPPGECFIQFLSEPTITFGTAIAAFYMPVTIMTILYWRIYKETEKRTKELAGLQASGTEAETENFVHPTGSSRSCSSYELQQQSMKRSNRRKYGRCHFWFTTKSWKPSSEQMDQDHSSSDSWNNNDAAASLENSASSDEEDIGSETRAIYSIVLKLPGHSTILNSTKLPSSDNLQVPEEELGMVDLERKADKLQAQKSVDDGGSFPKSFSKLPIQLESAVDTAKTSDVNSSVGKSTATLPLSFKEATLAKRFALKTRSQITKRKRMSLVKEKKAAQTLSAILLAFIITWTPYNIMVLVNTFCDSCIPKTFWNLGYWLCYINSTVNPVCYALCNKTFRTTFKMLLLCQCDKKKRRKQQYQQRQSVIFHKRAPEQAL

Compound	% Agonist Activity (168 GPCRs [1]; CCR10, 1 uM) [%]	% Antagonist Activity (168 GPCRs [1]; CCR10, 1 uM) [%]	% Agonist Activity (168 GPCRs [1]; CCR10, 10 uM) [%]	% Antagonist Activity (168 GPCRs [1]; CCR10, 10 uM) [%]	% Agonist Activity (168 GPCRs [2]; 1 uM) [%]	% Antagonist Activity (168 GPCRs [2]; 1 uM) [%]	% Agonist Activity (168 GPCRs [2]; 10 uM) [%]	% Antagonist Activity (168 GPCRs [2]; 10 uM) [%]	% Agonist Activity (168 GPCRs [3]; CHRM3, 1 uM) [%]	% Antagonist Activity (168 GPCRs [3]; CHRM3, 1 uM) [%]	% Agonist Activity (168 GPCRs [3]; CHRM3, 10 uM) [%]	% Antagonist Activity (168 GPCRs [3]; CHRM3, 10 uM) [%]	% Agonist Activity (168 GPCRs [4]; 1 uM) [%]	% Antagonist Activity (168 GPCRs [4]; 1 uM) [%]	% Agonist Activity (168 GPCRs [4]; 10 uM) [%]	% Antagonist Activity (168 GPCRs [4]; 10 uM) [%]	% Agonist Activity (168 GPCRs [5]; CNR2, 1 uM) [%]	% Antagonist Activity (168 GPCRs [5]; CNR2, 1 uM) [%]	% Agonist Activity (168 GPCRs [5]; CNR2, 10 uM) [%]	% Antagonist Activity (168 GPCRs [5]; CNR2, 10 uM) [%]	also measured
CNC(C)Cc1ccc2c(c1)OCO2 (stereo not shown) [MDMA, 3,4-Methylenedioxy methamphetamine, reference compound]	-1.1	8.9	-0.7	12.1	3.3	4.8	2.6	11.7	5.1	-9.4	4.3	1.4	2.3	3.2	1.2	5.2	0.1	8.9	-6.8	7.8	% Agonist Activity (168 GPCRs [6]; 1 uM): 7%; % Antagonist Activity (168 GPCRs [6]; 1 uM): -5%; % Agonist Activity (168 GPCRs [6]; 10 uM): 6.5%; % Antagonist Activity (168 GPCRs [6]; 10 uM): -13.9%; % Agonist Activity (168 GPCRs [7]; 1 uM): -1.1%; % Antagonist Activity (168 GPCRs [7]; 1 uM): 2.5%; % Agonist Activity (168 GPCRs [7]; 10 uM): -1.9%; % Antagonist Activity (168 GPCRs [7]; 10 uM): 4.6%; % Agonist Activity (168 GPCRs [8]; GPR35, 1 uM): 0.3%; % Antagonist Activity (168 GPCRs [8]; GPR35, 1 uM): -1.1%; % Agonist Activity (168 GPCRs [8]; GPR35, 10 uM): -1.5%; % Antagonist Activity (168 GPCRs [8]; GPR35, 10 uM): 4.6%
CNC(C)C(=O)c1ccc2c(c1)OCO2 (stereo not shown) [methylone]	-2	5.4	-1.8	2.6	0.1	1.1	-0.7	0.1	6	-5.5	6	14.6	-1	-1.1	1.5	-2.4	7	3.6	3.2	-3.2	% Agonist Activity (168 GPCRs [6]; 1 uM): -3.8%; % Antagonist Activity (168 GPCRs [6]; 1 uM): -4.6%; % Agonist Activity (168 GPCRs [6]; 10 uM): -3.8%; % Antagonist Activity (168 GPCRs [6]; 10 uM): 1.9%; % Agonist Activity (168 GPCRs [7]; 1 uM): 0.3%; % Antagonist Activity (168 GPCRs [7]; 1 uM): -2.4%; % Agonist Activity (168 GPCRs [7]; 10 uM): 1.4%; % Antagonist Activity (168 GPCRs [7]; 10 uM): -11.3%; % Agonist Activity (168 GPCRs [8]; GPR35, 1 uM): 2.2%; % Antagonist Activity (168 GPCRs [8]; GPR35, 1 uM): 13.2%; % Agonist Activity (168 GPCRs [8]; GPR35, 10 uM): 2.5%; % Antagonist Activity (168 GPCRs [8]; GPR35, 10 uM): 7.3%

From publication PMC10882719 (Frontiers in Neuroscience, 2024)
